Test results from patent publication US11173151B2, “Substituted triazole derivatives and uses thereof” (BAYER AKTIENGESELLSCHAFT, priority 2017, dated 2021).

Columns and labels:
human V1a receptor = molecular target: T1, human V1a receptor (Homo sapiens, UniProt P37288); experiment: Cellular in vitro assay for determining vasopressin receptor activity, V1a receptor cell line (CHO, aequorin luminescence); assay type: cell-based; conditions: for IC50: CHO cell line transfected with human V1a receptor, [Arg]-vasopressin at EC50 concentration, read-out: IC50 hV1a; for ratio IC50 hV2/hV1a: selectivity ratio IC50 hV2 / IC50 hV1a
T1 construct: expressed in transfected cells; host or cells: CHO K1 (ATCC), also stably transfected with a modified aequorin
T1 sequence (P37288 whole entry): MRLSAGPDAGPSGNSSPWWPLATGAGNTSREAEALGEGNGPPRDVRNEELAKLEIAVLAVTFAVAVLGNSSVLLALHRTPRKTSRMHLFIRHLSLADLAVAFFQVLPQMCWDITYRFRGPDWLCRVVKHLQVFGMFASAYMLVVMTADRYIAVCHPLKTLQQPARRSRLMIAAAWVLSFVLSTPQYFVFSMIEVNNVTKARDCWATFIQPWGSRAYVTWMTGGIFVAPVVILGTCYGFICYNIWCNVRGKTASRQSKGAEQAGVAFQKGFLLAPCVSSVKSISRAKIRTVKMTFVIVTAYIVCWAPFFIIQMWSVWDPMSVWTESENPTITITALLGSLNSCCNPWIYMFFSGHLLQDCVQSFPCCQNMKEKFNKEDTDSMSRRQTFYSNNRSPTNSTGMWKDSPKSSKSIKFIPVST
Outline: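 Luminescence from reconstituted aequorin, reporting intracellular calcium release, was measured immediately after adding [Arg]-vasopressin at EC50 concentration to CHO K1 cells pretreated 10 minutes with graded compound concentrations. Inhibition gave IC50 values.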

human V2 receptor = molecular target: T2, human V2 receptor (Homo sapiens, UniProt P30518); experiment: Cellular in vitro assay for determining vasopressin receptor activity, V2 receptor cell line (CHO, CRE-luciferase); assay type: cell-based; conditions: CHO cell line transfected with human V2 receptor; [Arg8]-vasopressin at EC50 concentration, 3 hours; read-out: IC50 hV2
T2 construct: expressed in transfected cells; host or cells: CHO K1 (ATCC) expressing firefly luciferase under a CRE-responsive promoter
T2 sequence (P30518 whole entry): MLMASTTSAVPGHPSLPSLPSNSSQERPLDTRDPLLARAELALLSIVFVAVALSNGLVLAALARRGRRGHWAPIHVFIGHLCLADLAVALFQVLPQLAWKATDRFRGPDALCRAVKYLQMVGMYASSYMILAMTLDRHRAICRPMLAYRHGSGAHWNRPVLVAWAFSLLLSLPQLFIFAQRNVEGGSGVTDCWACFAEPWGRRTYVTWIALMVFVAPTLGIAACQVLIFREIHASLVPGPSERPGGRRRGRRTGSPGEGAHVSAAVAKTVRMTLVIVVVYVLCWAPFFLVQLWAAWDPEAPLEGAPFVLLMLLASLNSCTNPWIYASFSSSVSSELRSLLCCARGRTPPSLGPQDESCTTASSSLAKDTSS

| SMILES | IC50 (human V1a receptor) | ratio IC50 hV2/hV1a (human V1a receptor) | IC50 (human V2 receptor) |
| --- | --- | --- | --- |
| CN1CCN(C(=O)c2ccccc2-n2cnc(Cn3nc(-c4ccc(Cl)cc4)n(C[C@H](O)C(F)(F)F)c3=O)n2)CC1=O [Example 288, 4-{2-[3-({3-(4-Chlorophenyl)-5-oxo-4-[(2S)-3,3,3-trifluoro-2-hydroxypropyl]-4,5-dihydro-1H-1,2,4-triazol-1-yl}methyl)-1H-1,2,4-triazol-1-yl]benzoyl}-1-methylpiperazin-2-one] | 46 nM | 92.4 | 4250 nM |
| CN(CC1CC1)C(=O)c1ccccc1-n1cnc(Cn2nc(-c3ccc(Cl)cc3)n(C[C@H](O)C(F)(F)F)c2=O)n1 [Example 289, 2-[3-({3-(4-Chlorophenyl)-5-oxo-4-[(2S)-3,3,3-trifluoro-2-hydroxypropyl]-4,5-dihydro-1H-1,2,4-triazol-1-yl}methyl)-1H-1,2,4-triazol-1-yl]-N-(cyclopropylmethyl)-N-methylbenzamide] | 0.83 nM | 536.1 | 445 nM |
| O=C(c1ccccc1-n1cnc(Cn2nc(-c3ccc(Cl)cc3)n(C[C@H](O)C(F)(F)F)c2=O)n1)N1CC(O)C1 [Example 290, 5-(4-Chlorophenyl)-2-[(1-{2-[(3-hydroxyazetidin-1-yl)carbonyl]phenyl}-1H-1,2,4-triazol-3-yl)methyl]-4-[(2S)-3,3,3-trifluoro-2-hydroxypropyl]-2,4-dihydro-3H-1,2,4-triazol-3-one] | 9.1 nM | 92.9 | 845 nM |
| O=C(c1ccccc1-n1cnc(Cn2nc(-c3ccc(Cl)cc3)n(C[C@H](O)C(F)(F)F)c2=O)n1)N1CC[C@@H](O)C1 [Example 291, 5-(4-Chlorophenyl)-2-{[1-(2-{[(3R)-3-hydroxypyrrolidin-1-yl]carbonyl}phenyl)-1H-1,2,4-triazol-3-yl]methyl}-4-[(2S)-3,3,3-trifluoro-2-hydroxypropyl]-2,4-dihydro-3H-1,2,4-triazol-3-one] | 6.6 nM | 174.2 | 1150 nM |
| CC1C=CC(C)N1C(=O)c1ccccc1-n1cnc(Cn2nc(-c3ccc(Cl)cc3)n(C[C@H](O)C(F)(F)F)c2=O)n1 (stereo partly drawn) [Example 293, 5-(4-Chlorophenyl)-2-[(1-{2-[(2,5-dimethyl-2,5-dihydro-1H-pyrrol-1-yl)carbonyl]phenyl}-1H-1,2,4-triazol-3-yl)methyl]-4-[(2S)-3,3,3-trifluoro-2-hydroxypropyl]-2,4-dihydro-3H-1,2,4-triazol-3-one] | 4.7 nM | 178.7 | 840 nM |
| C=CCN(C)C(=O)c1ccccc1-n1cnc(Cn2nc(-c3ccc(Cl)cc3)n(C[C@H](O)C(F)(F)F)c2=O)n1 [Example 294, 2-[3-({3-(4-Chlorophenyl)-5-oxo-4-[(2S)-3,3,3-trifluoro-2-hydroxypropyl]-4,5-dihydro-1H-1,2,4-triazol-1-yl}methyl)-1H-1,2,4-triazol-1-yl]-N-methyl-N-(prop-2-en-1-yl)benzamide] | 2.1 nM | 735.7 | 1540 nM |
| CCN(C)C(=O)c1ccccc1-n1cnc(Cn2nc(-c3ccc(Cl)cc3)n(C[C@H](O)C(F)(F)F)c2=O)n1 [Example 295, 2-[3-({3-(4-Chlorophenyl)-5-oxo-4-[(2S)-3,3,3-trifluoro-2-hydroxypropyl]-4,5-dihydro-1H-1,2,4-triazol-1-yl}methyl)-1H-1,2,4-triazol-1-yl]-N-ethyl-N-methylbenzamide] | 2.5 nM | 30.8 | 77 nM |
| Cc1cccnc1NC(=O)c1ccccc1-n1cnc(Cn2nc(-c3ccc(Cl)cc3)n(C[C@H](O)C(F)(F)F)c2=O)n1 [Example 296, 2-[3-({3-(4-Chlorophenyl)-5-oxo-4-[(2S)-3,3,3-trifluoro-2-hydroxypropyl]-4,5-dihydro-1H-1,2,4-triazol-1-yl}methyl)-1H-1,2,4-triazol-1-yl]-N-(3-methylpyridin-2-yl)benzamide] | 3.95 nM | 126.6 | 500 nM |
| O=C(NCc1ccccc1)c1ccccc1-n1cnc(Cn2nc(-c3ccc(Cl)cc3)n(C[C@H](O)C(F)(F)F)c2=O)n1 [Example 299, N-Benzyl-2-[3-({3-(4-chlorophenyl)-5-oxo-4-[(2S)-3,3,3-trifluoro-2-hydroxypropyl]-4,5-dihydro-1H-1,2,4-triazol-1-yl}methyl)-1H-1,2,4-triazol-1-yl]benzamide] | 4.4 nM | 60.2 | 265 nM |
| O=C(Nc1ccncc1)c1ccccc1-n1cnc(Cn2nc(-c3ccc(Cl)cc3)n(C[C@H](O)C(F)(F)F)c2=O)n1 [Example 300, 2-[3-({3-(4-Chlorophenyl)-5-oxo-4-[(2S)-3,3,3-trifluoro-2-hydroxypropyl]-4,5-dihydro-1H-1,2,4-triazol-1-yl}methyl)-1H-1,2,4-triazol-1-yl]-N-(pyridin-4-yl)benzamide] | 1.02 nM | 656.9 | 670 nM |

Other lines, results leading:

| IC50 (human V1a receptor) | ratio IC50 hV2/hV1a (human V1a receptor) | IC50 (human V2 receptor) | SMILES |
| --- | --- | --- | --- |
| 8.75 nM | 69.7 | 610 nM | O=C(NCc1ccccn1)c1ccccc1-n1cnc(Cn2nc(-c3ccc(Cl)cc3)n(C[C@H](O)C(F)(F)F)c2=O)n1 [Example 301, 2-[3-({3-(4-Chlorophenyl)-5-oxo-4-[(2S)-3,3,3-trifluoro-2-hydroxypropyl]-4,5-dihydro-1H-1,2,4-triazol-1-yl}methyl)-1H-1,2,4-triazol-1-yl]-N-(pyridin-2-ylmethyl)benzamide] |
| 3.75 nM | 880.0 | 3300 nM | O=C(NCc1ccncc1)c1ccccc1-n1cnc(Cn2nc(-c3ccc(Cl)cc3)n(C[C@H](O)C(F)(F)F)c2=O)n1 [Example 302, 2-[3-({3-(4-Chlorophenyl)-5-oxo-4-[(2S)-3,3,3-trifluoro-2-hydroxypropyl]-4,5-dihydro-1H-1,2,4-triazol-1-yl}methyl)-1H-1,2,4-triazol-1-yl]-N-(pyridin-4-ylmethyl)benzamide] |
| 2.15 nM | 234.9 | 505 nM | O=C(Nc1ccc(F)cc1F)c1ccccc1-n1cnc(Cn2nc(-c3ccc(Cl)cc3)n(C[C@H](O)C(F)(F)F)c2=O)n1 [Example 303, 2-[3-({3-(4-Chlorophenyl)-5-oxo-4-[(2S)-3,3,3-trifluoro-2-hydroxypropyl]-4,5-dihydro-1H-1,2,4-triazol-1-yl}methyl)-1H-1,2,4-triazol-1-yl]-N-(2,4-difluorophenyl)benzamide] |
| 2.25 nM | 29.1 | 65.5 nM | O=C(Nc1cc(F)ccc1F)c1ccccc1-n1cnc(Cn2nc(-c3ccc(Cl)cc3)n(C[C@H](O)C(F)(F)F)c2=O)n1 [Example 304, 2-[3-({3-(4-Chlorophenyl)-5-oxo-4-[(2S)-3,3,3-trifluoro-2-hydroxypropyl]-4,5-dihydro-1H-1,2,4-triazol-1-yl}methyl)-1H-1,2,4-triazol-1-yl]-N-(2,5-difluorophenyl)benzamide] |
| 0.97 nM | 55.7 | 54 nM | O=C(Nc1ccccc1F)c1ccccc1-n1cnc(Cn2nc(-c3ccc(Cl)cc3)n(C[C@H](O)C(F)(F)F)c2=O)n1 [Example 305, 2-[3-({3-(4-Chlorophenyl)-5-oxo-4-[(2S)-3,3,3-trifluoro-2-hydroxypropyl]-4,5-dihydro-1H-1,2,4-triazol-1-yl}methyl)-1H-1,2,4-triazol-1-yl]-N-(2-fluorophenyl)benzamide] |
